Drawing on patent US20250197372A1 (priority 2020, published 2025), this text covers IC50 for 19 compounds.

Broadly, the IC50 is the point on the concentration scale where inhibition reaches its midpoint.

The target of test [1] is T1, recombinant human GBA (beta-glucocerebrosidase) (Homo sapiens, UniProt P04062).
T1 sequence (P04062 40-536): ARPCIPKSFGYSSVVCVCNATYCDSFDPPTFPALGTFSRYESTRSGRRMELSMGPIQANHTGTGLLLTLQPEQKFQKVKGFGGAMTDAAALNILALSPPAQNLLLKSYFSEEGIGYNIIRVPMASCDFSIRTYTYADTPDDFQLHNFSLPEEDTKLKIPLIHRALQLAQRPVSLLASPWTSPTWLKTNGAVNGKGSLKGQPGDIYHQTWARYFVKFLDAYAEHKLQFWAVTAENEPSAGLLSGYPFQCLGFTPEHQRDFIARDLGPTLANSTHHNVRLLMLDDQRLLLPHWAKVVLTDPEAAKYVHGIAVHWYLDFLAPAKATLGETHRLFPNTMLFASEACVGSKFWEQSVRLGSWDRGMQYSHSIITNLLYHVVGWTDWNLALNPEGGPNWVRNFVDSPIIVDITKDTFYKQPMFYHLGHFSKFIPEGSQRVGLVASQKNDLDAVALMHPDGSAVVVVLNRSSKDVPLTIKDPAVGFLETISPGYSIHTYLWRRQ
The test is described as follows: Beta-glucocerebrosidase (GBA, glucosylceramidase) assay (4-methylumbelliferyl-beta-D-pyranoside substrate, fluorescence). Type of test: biochemical. As to the method:
Beta-glucocerebrosidase (GBA, also referred to glucosylceramidase): To analyze inhibitory effects of a test compound, commercially available recombinant human GBA was incubated with multiple dilutions of test compound for 60 minutes at 37° C. 4-methylumbelliferyl-beta-D-pyranoside was then introduced to the mixture as substrate. Following incubation for 60 minutes at 37° C., 1,4-methyllumbelliferone was generated, and the reaction was stopped with the stop solution (0.5 M glycine; 0.3 M NaOH, pH 10). 1,4-methyllumbelliferone was detected by fluorescence (excitation at 365 nm, emission at 440 nm). Relative fluorescence compared to untreated enzymatic activity and test compound concentration is then plotted as a function of percent inhibition. The IC50 was determined using a 4-PL curve fit as the measure of relative inhibitory activity of each test compound (see Table 3).

Test [2] deals with rat maltase (partially purified alpha-glucosidase from intestinal rat powder). Nature of the test: Intestinal alpha-glucosidase assay, maltose substrate (Glucose GO Kit). Type of test: biochemical. The procedure:
Intestinal alpha-glucosidases (rat maltase and sucrase): Intestinal alpha-glucosidases act upon 1,4-alpha-glucoside bonds, breaking down disaccharides to glucose. To perform this assay, partially purified alpha-glucosidase from intestinal rat powder was incubated for 60 minutes at 37° C. with multiple dilutions of test compounds. Maltose or Sucrose respectively was then introduced as substrate to the mixture and incubated for 30 minutes at 37° C. The reaction was stopped by a 5-minute incubation at 90° C. and the resultant glucose production is detected using Sigma's Glucose GO Kit. Percent inhibition was then plotted as a function of concentration for each test compound. The IC50 was determined using a 4-PL curve fit and serves as the measure of relative inhibition of each test compound (see Table 3).

Molecules are shown by their SMILES.

Consider `COCCc1ccc(CCCCCN2C[C@H](O)[C@@H](O)[C@H](O)[C@H]2CO)cc1` [Compound 1307, (2R,3R,4R,5S)-2-(hydroxymethyl)-1-{5-[4-(2-methoxyethyl)phenyl]pentyl}piperidine-3,4,5-triol], for which the IC50 stood at 5000 nM in test [1] and 32 nM in test [2].

For the compound `COc1cc(NCCc2ccc(CCN3C[C@H](O)[C@@H](O)[C@H](O)[C@H]3CO)cc2)cc(-c2ncccn2)c1` [Compound 1156, (2R,3R,4R,5S)-2-(hydroxymethyl)-1-{2-[4-(2-{[3-methoxy-5-(pyrimidin-2-yl)phenyl]amino}ethyl)phenyl]ethyl}piperidine-3,4,5-triol], the IC50 turned out to be 7130 nM in test [1] and 287 nM in test [2].

As to `O=[N+]([O-])c1cc(-c2ccccc2)ccc1NCCCCCCN1C[C@H](O)[C@@H](O)[C@H](O)[C@H]1CO` [Compound 1138, (2R,3R,4R,5S)-2-(hydroxymethyl)-1-[6-({3-nitro-[1,1′-biphenyl]-4-yl}amino)hexyl]piperidine-3,4,5-triol], the IC50 is 18 nM in test [1] and under 1 nM in test [2].

`OC[C@@H]1[C@@H](O)[C@H](O)[C@@H](O)CN1Cc1ccc(CNc2ccc(N3CCOCC3)cc2)cc1` [Compound 1068]: the figures for the IC50 in test [1] and in test [2] were over 100000 nM and 49 nM, respectively.

Take `[N-]=[N+]=Nc1ccc(NCCn2cc(CCN3C[C@H](O)[C@@H](O)[C@H](O)[C@H]3CO)c3ccccc32)c([N+](=O)[O-])c1` [Compound 1177, (2R,3R,4R,5S)-1-[2-(1-{2-[(4-azido-2-nitrophenyl)amino]ethyl}-1H-indol-3-yl)ethyl]-2-(hydroxymethyl)piperidine-3,4,5-triol]: the IC50 is 3320 nM in test [1] and 32 nM in test [2].

For the compound `O=[N+]([O-])c1cc(N2C3CCC2COC3)ccc1NCc1ccc(CN2CC(O)C(O)C(O)C2CO)cc1` (stereo in doubt) [Compound 1018, (2S,3S,4S,5R)-2-(hydroxymethyl)-1-({4-[({2-nitro-4-[(1R,5S)-3-oxa-8-azabicyclo[3.2.1]octan-8-yl]phenyl}amino)methyl]phenyl}methyl) piperidine-3,4,5-triol], the half-inhibitory concentration (IC50) in test [1] is over 100000 nM; in test [2], under 1 nM.

For the compound `[N-]=[N+]=Nc1ccc(NCCc2cncc(CCN3C[C@H](O)[C@@H](O)[C@H](O)[C@H]3CO)n2)c([N+](=O)[O-])c1` [Compound 1187, (2R,3R,4R,5S)-1-[2-(6-{2-[(4-azido-2-nitrophenyl)amino]ethyl}pyrazin-2-yl)ethyl]-2-(hydroxymethyl)piperidine-3,4,5-triol], the half-inhibitory concentration (IC50) in test [1] was 16400 nM; in test [2] it was 1200 nM.

Take `O=[N+]([O-])c1cc(C2CC2)ccc1NCCCCCCN1C[C@H](O)[C@@H](O)[C@H](O)[C@H]1CO` [Compound 1136, (2R,3R,4R,5S)-1-{6-[(4-cyclopropyl-2-nitrophenyl)amino]hexyl}-2-(hydroxymethyl)piperidine-3,4,5-triol]: the half-inhibitory concentration (IC50) is 37 nM in test [1] and under 1 nM in test [2].

On to `[N-]=[N+]=Nc1ccc(NCCc2cc(CCN3C[C@H](O)[C@@H](O)[C@H](O)[C@H]3CO)cs2)c([N+](=O)[O-])c1` [Compound 1179, (2R,3R,4R,5S)-1-[2-(5-{2-[(4-azido-2-nitrophenyl)amino]ethyl}thiophen-3-yl)ethyl]-2-(hydroxymethyl)piperidine-3,4,5-triol], for which the figures for the IC50 in test [1] and in test [2] were 380 nM and 1 nM, respectively.

With `COc1cc(NCCc2ccc(CCN3C[C@H](O)[C@@H](O)[C@H](O)[C@H]3CO)cc2)cc(-c2cccnn2)c1` [Compound 1157, (2R,3R,4R,5S)-2-(hydroxymethyl)-1-{2-[4-(2-{[3-methoxy-5-(pyridazin-3-yl)phenyl]amino}ethyl)phenyl]ethyl}piperidine-3,4,5-triol], the IC50 in test [1] is 4590 nM; in test [2], 107 nM.

For the compound `O=Cc1cc(-c2ncccn2)ccc1NCCCCCCN1C[C@H](O)[C@@H](O)[C@H](O)[C@H]1CO` [Compound 1184, 5-(pyrimidin-2-yl)-2-({6-[(2R,3R,4R,5S)-3,4,5-trihydroxy-2-(hydroxymethyl)piperidin-1-yl]hexyl}amino)benzaldehyde], the half-maximal inhibitory concentration (IC50) in test [1] came out at 950 nM; in test [2] it was 6 nM.

As to `CCCc1nc(-c2cc(Cl)cc(NCCc3ccc(CCN4C[C@H](O)[C@@H](O)[C@H](O)[C@H]4CO)cc3)c2)no1` [Compound 1123, (2R,3R,4R,5S)-1-{2-[4-(2-{[3-chloro-5-(5-propyl-1,2,4-oxadiazol-3-yl)phenyl]amino}ethyl)phenyl]ethyl}-2-(hydroxymethyl)piperidine-3,4,5-triol], the IC50 turned out to be 627 nM in test [1] and 440 nM in test [2].

In the case of `CS(=O)(=O)c1cc(NCc2ccc(CN3C[C@H](O)[C@@H](O)[C@H](O)[C@H]3CO)cc2)cc(-c2cccnn2)c1` [Compound 1058, (2R,3R,4R,5S)-2-(hydroxymethyl)-1-{[4-({[3-methanesulfonyl-5-(pyridazin-3-yl)phenyl]amino}methyl)phenyl]methyl}piperidine-3,4,5-triol], the IC50 is over 100000 nM in test [1] and 8 nM in test [2].

`[N-]=[N+]=Nc1ccc(NCCc2ccc(CCN3C[C@@H](O)[C@H](O)[C@@H](O)[C@@H]3CO)c3ccccc23)c([N+](=O)[O-])c1` (stereo in doubt) [Compound 1178, (2S,3S,4S,5R)-1-[2-(4-{2-[(4-azido-2-nitrophenyl)amino]ethyl}naphthalen-1-yl)ethyl]-2-(hydroxymethyl)piperidine-3,4,5-triol]: the IC50 in test [1] was determined as 5900 nM; in test [2], 3480 nM.

In the case of `OC[C@@H]1[C@@H](O)[C@H](O)[C@@H](O)CN1CCc1ccc(CCNc2cc(Cl)cc(-c3cccnn3)c2)cc1` [Compound 1163, (2R,3R,4R,5S)-1-{2-[4-(2-{[3-chloro-5-(pyridazin-3-yl)phenyl]amino}ethyl)phenyl]ethyl}-2-(hydroxymethyl)piperidine-3,4,5-triol], the results for the half-inhibitory concentration (IC50) in test [1] and in test [2] were 6820 nM and 309 nM, respectively.

`[N-]=[N+]=Nc1ccc(NCc2ccc(CN3C[C@H](O)[C@@H](O)[C@H](O)[C@H]3CO)cc2)c([N+](=O)[O-])c1` [Compound 1170, (2R,3R,4R,5S)-1-[(4-{[(4-azido-2-nitrophenyl)amino]methyl}phenyl)methyl]-2-(hydroxymethyl)piperidine-3,4,5-triol]: the figures for the IC50 in test [1] and in test [2] were 29900 nM and under 1 nM, respectively.

Consider `COc1cc(NCCCCCCN2C[C@H](O)[C@@H](O)[C@H](O)[C@H]2CO)cc(-c2ccccc2)c1` [Compound 1150, (2R,3R,4R,5S)-2-(hydroxymethyl)-1-[6-({5-methoxy-[1,1′-biphenyl]-3-yl}amino)hexyl]piperidine-3,4,5-triol], for which the 50% inhibitory concentration (IC50) in test [1] is 193 nM; in test [2], under 1 nM.

On to `[N-]=[N+]=Nc1ccc(NCCc2ccc(CCN3C[C@H](O)[C@@H](O)[C@H](O)[C@H]3CO)cc2)c([N+](=O)[O-])c1` [Compound 1200, (2R,3R,4R,5S)-1-[2-(4-{2-[(4-azido-2-nitrophenyl)amino]ethyl}phenyl)ethyl]-2-(hydroxymethyl)piperidine-3,4,5-triol], for which the IC50 in test [1] was 1450 nM; in test [2] it was 81 nM.

With `N#Cc1cc(NCCCCCCN2C[C@H](O)[C@@H](O)[C@H](O)[C@H]2CO)cc(-c2ncccn2)c1` [Compound 1130, 3-(pyrimidin-2-yl)-5-({6-[(2R,3R,4R,5S)-3,4,5-trihydroxy-2-(hydroxymethyl)piperidin-1-yl]hexyl}amino)benzonitrile], the 50% inhibitory concentration (IC50) was found to be 974 nM in test [1] and 4 nM in test [2].
